How the values were obtained:
THRα = target: T1, THRα (Homo sapiens, UniProt P10827); assay: THRα agonist activity, fluorescence ratio 665 nm/615 nm with EE-RxRα and biotin-GRIP; type: biochemical; conditions: incubated overnight at 4° C.
T1 construct: GST
T1 sequence (P10827 1-410 isoform P10827-2): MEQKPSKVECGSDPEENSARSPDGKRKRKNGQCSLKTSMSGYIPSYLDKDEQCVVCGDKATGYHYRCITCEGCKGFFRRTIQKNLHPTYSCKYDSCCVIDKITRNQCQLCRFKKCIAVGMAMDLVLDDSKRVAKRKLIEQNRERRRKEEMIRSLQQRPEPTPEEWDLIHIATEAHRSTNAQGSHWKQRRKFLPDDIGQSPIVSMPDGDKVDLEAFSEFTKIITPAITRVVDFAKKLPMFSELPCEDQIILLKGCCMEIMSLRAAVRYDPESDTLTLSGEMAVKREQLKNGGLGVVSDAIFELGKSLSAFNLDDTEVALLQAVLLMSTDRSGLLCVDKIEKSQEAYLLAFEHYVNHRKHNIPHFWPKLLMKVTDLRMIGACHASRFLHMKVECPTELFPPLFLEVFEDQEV
T1 sequence (P19793 225-462 partner limits assumed): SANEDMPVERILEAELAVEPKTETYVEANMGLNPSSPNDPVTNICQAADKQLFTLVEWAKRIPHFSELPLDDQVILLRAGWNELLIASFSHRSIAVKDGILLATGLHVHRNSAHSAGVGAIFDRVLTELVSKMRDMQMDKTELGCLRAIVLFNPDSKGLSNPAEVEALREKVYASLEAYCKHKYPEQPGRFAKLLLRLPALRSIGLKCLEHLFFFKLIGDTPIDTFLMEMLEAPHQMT
T1 sequence (Q15596 679-703 partner limits assumed): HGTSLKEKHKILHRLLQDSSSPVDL
Protocol: (§1) Test compound was dissolved and serially diluted in dimethyl sulfoxide (DMSO) with a final compound concentration of 60 mM. […] Buffer 1 was employed again to prepare EE-RxRα at the same concentrations as those of THRα and THRβ, respectively. Buffer 1+5% DMSO was employed to prepare biotin-GRIP (THRα: […], THRβ: 100 nM). Buffer 2 (50 mM Tris, pH 7.4, 100 mM NaCl, and 0.2 mg/mL BSA) was employed to prepare a mixed solution of 2×Eu-anti-GST and 2×streptavidin-d2. 5 μL of the THRα (THRβ) solution+5 μL of EE-RxRα+2.5 μL of the DMSO solution of test compound+2.5 μL of biotin-GRIP+5 μL of the mixed solution of 2×Eu-anti-GST and 2×streptavidin-d2 was employed as the reaction system, and incubated overnight at 4° C.

L929 mouse fibroblasts = assay: Cytotoxicity in normal cell line L929 (CCK-8 proliferation assay); type: cell-based; conditions: 48 h treatment, CCK-8, absorbance 450 nm, read-out: IC50 for proliferation of L929 cell lines
Protocol: Concentration of L929 mouse fibroblasts was adjusted to 4×10^5 cells/mL. The cells were seeded in a 96 well plate with […] per well. Wells not supplied with the cells (blank group) were provided. The cells were cultivated on the plate and were allowed to adhere overnight. Then, cell culture supernatants were collected, and 200 μL of test compound at various concentrations were added to the corresponding cell culture supernatants. Control and compound-treated cell culture supernatants were included in each experiment with triplicate wells for each experimental group, and were cultivated for a further 48 h. Then, the resulting cell culture supernatants were again collected, and fresh medium supplemented with 10% CCK-8 solution was added thereto. Incubation for an additional 3 h was carried out. Thereafter, the absorbance of the medium was measured at 450 nm wavelength, and the inhibitory rate of cell proliferation by test compound was calculated according to the equation below: R (%)=1−(Aexperiment−Ablank)/(Acontrol−Ablank)

THRβ = target: T2, THRβ (Homo sapiens, UniProt P10828); assay: THRβ agonist activity, fluorescence ratio 665 nm/615 nm with EE-RxRα and biotin-GRIP; type: biochemical; conditions: incubated overnight at 4° C.
T2 construct: GST
T2 sequence (P10828 1-461): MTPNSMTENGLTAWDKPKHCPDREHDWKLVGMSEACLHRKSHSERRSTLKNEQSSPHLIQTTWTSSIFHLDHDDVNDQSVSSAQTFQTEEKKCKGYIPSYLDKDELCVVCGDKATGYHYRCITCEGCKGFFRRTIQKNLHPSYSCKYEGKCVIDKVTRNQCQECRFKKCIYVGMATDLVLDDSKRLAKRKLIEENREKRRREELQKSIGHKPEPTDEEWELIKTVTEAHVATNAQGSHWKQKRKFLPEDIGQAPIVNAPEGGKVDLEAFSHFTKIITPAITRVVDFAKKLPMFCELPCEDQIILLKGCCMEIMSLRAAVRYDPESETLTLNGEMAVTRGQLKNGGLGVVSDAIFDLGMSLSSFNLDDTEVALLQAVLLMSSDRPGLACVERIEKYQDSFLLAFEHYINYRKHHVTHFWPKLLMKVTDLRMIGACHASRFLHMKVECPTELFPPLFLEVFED
T2 sequence (P19793 225-462 partner limits assumed): T1 sequence (P19793 225-462 partner limits assumed)
T2 sequence (Q15596 679-703 partner limits assumed): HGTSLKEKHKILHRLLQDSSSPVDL
Protocol: as §1

Structure (SMILES) | EC50 (THRα) [µM] | EC50 (THRβ) [µM] | IC50 (L929 mouse fibroblasts) [µM]
CC(C)(C)c1cc(Oc2ccc(-n3nc(C#N)c(=O)[nH]c3=O)cc2Cl)n[nH]c1=O [Compound 3] | 1.4 | 0.81 | > 50
CC(C)(C)c1cc(Oc2c(Cl)cc(-n3nc(C#N)c(=O)[nH]c3=O)cc2Cl)n[nH]c1=O [Compound 1, 2-(4-((5-(tert-butyl)-6-oxo-1,6-dihydropyridazin-3-yl)oxy)-3,5-dichlorophenyl)-3,5-dioxo-2,3,4,5-tetrahydro-1,2,4-triazine-6-carbonitrile] | 0.126 | 0.101 | > 50
CC(C)c1cc(Oc2ccc(-n3nc(C#N)c(=O)[nH]c3=O)c(Cl)c2)n[nH]c1=O [Compound 30] | > 60 | 17.3 | > 50
CC(C)c1cc(Oc2ccc(-n3nc(C#N)c(=O)[nH]c3=O)cc2F)n[nH]c1=O [Compound 25] | 0.014 | 2.7 | > 50
COc1cc(-n2nc(C#N)c(=O)[nH]c2=O)ccc1Oc1cc(CC(C)(C)C)c(=O)[nH]n1 [Compound 21] | 19.9 | 1.52 | > 50
CC(C)Cc1cc(Oc2ccc(-n3nc(C#N)c(=O)[nH]c3=O)cc2Br)n[nH]c1=O [Compound 15] | – | 1.52 | > 50
Cc1c(Oc2c(Cl)cc(-n3nc(C#N)c(=O)[nH]c3=O)cc2Cl)n[nH]c(=O)c1C [Compound 22] | 0.631 | 0.184 | > 50
N#Cc1nn(-c2ccc(Oc3cc(CC4CCCC4)c(=O)[nH]n3)cc2)c(=O)[nH]c1=O [Compound 13] | > 60 | 1.9 | > 50
CC(C)c1cc(Oc2ccc(-n3nc(C#N)c(=O)[nH]c3=O)cc2Cl)n[nH]c1=O [Compound 26] | 2.07 | 0.055 | > 50
CC(C)(C)Cc1cc(Oc2c(Cl)cc(-n3nc(C#N)c(=O)[nH]c3=O)cc2Cl)n[nH]c1=O [Compound 18] | 2.11 | 0.0311 | > 50
CC(C)(C)c1cc(Oc2ccc(-n3nc(C#N)c(=O)[nH]c3=O)cc2F)n[nH]c1=O [Compound 2, 2-(4-((5-(tert-butyl)-6-oxo-1,6-dihydropyridazin-3-yl)oxy)-3-fluorophenyl)-3,5-dioxo-2,3,4,5-tetrahydro-1,2,4-triazine-6-carbonitrile] | 5.38 | 0.021 | > 50
CC(C)(C)Cc1cc(Oc2cc(Cl)c(-n3nc(C#N)c(=O)[nH]c3=O)cc2Cl)n[nH]c1=O [Compound 20] | – | 4.58 | > 50
CC(C)(C)Cc1cc(Oc2ccc(-n3nc(C#N)c(=O)[nH]c3=O)cc2Cl)n[nH]c1=O [Compound 19] | 11.8 | 0.0668 | > 50
N#Cc1nn(-c2cc(Cl)c(Oc3cc(CC4CCCC4)c(=O)[nH]n3)cc2Cl)c(=O)[nH]c1=O [Compound 11] | 2.14 | 0.372 | > 50
COc1cc(-n2nc(C#N)c(=O)[nH]c2=O)ccc1Oc1cc(C(C)(C)C)c(=O)[nH]n1 [Compound 5] | 0.883 | 4.9 | > 50
Cc1c(Oc2ccc(-n3nc(C#N)c(=O)[nH]c3=O)cc2F)n[nH]c(=O)c1C [Compound 23] | 4.59 | 0.776 | > 50
CC(C)(C)c1cc(Oc2ccc(-n3nc(C#N)c(=O)[nH]c3=O)c(Cl)c2)n[nH]c1=O [Compound 4] | > 60 | 1.57 | > 50
N#Cc1nn(-c2ccc(Oc3cc(CC4CCCC4)c(=O)[nH]n3)cc2Cl)c(=O)[nH]c1=O [Compound 10] | – | 1.52 | > 50
CC(C)c1cc(Oc2ccc(-n3nc(C#N)c(=O)[nH]c3=O)cc2Br)n[nH]c1=O [Compound 27] | 2.55 | 0.0311 | > 50
CC(C)c1cc(Oc2cc(Cl)c(-n3nc(C#N)c(=O)[nH]c3=O)cc2Cl)n[nH]c1=O [Compound 29] | – | 0.117 | > 50

The next lines start with results.

EC50 (THRα) [µM] | EC50 (THRβ) [µM] | Structure (SMILES) | IC50 (L929 mouse fibroblasts) [µM]
0.014 | 3.85 | N#Cc1nn(-c2cc(Cl)c(Oc3cc(C4CCCC4)c(=O)[nH]n3)cc2Cl)c(=O)[nH]c1=O [Compound 34] | > 50
1.81 | 0.0257 | N#Cc1cn(-c2cc(Cl)c(Oc3cc(C4CCC4)c(=O)[nH]n3)c(Cl)c2)c(=O)[nH]c1=O [Compound 42, 1-(3,5-dichloro-4-((5-cyclobutyl-6-oxo-1,6-dihydropyridazin-3-yl)oxy)phenyl)-2,4-dioxo-1,2,3,4-tetrahydropyrimidine-5-carbonitrile] | > 50
5.11 | 0.0625 | COc1cc(-n2nc(C#N)c(=O)[nH]c2=O)ccc1Oc1cc(C(C)C)c(=O)[nH]n1 [Compound 31] | > 50
4.66 | 0.783 | N#Cc1nn(-c2cc(Cl)c(Oc3n[nH]c(=O)cc3C3CCCC3)c(Cl)c2)c(=O)[nH]c1=O [Compound 38] | > 50
3.32 | 0.254 | CC(C)c1cc(Oc2c(Cl)cc(-c3nn[nH]n3)cc2Cl)n[nH]c1=O [Compound 49, 6-(2,6-dichloro-4-(2H-tetrazol-5-yl)phenoxy)-4-isopropylpyridazin-3(2H)-one] | > 50
0.001 | > 60 | CC(C)c1cc(Oc2ccc(-n3cc(C#N)c(=O)[nH]c3=O)c(Cl)c2)n[nH]c1=O [Compound 41] | > 50
3.66 | 0.745 | CC(C)(C)c1cc(Oc2c(Cl)cc(-c3c[nH]c(=O)c(O)c3)cc2Cl)n[nH]c1=O [Compound 48] | > 50
– | 7.55 | N#Cc1nn(-c2ccc(Oc3cc(C4CCCC4)c(=O)[nH]n3)cc2Cl)c(=O)[nH]c1=O [Compound 33] | > 50
3.22 | 0.583 | N#Cc1nn(-c2ccc(Oc3n[nH]c(=O)cc3C3CCCC3)c(Cl)c2)c(=O)[nH]c1=O [Compound 39] | > 50
– | > 60 | CC(C)(C)Cc1cc(Oc2ccc(-n3cc(C#N)c(=O)[nH]c3=O)c(Cl)c2)n[nH]c1=O [Compound 45] | > 50
2.32 | 0.042 | CC(C)(C)Cc1cc(Oc2cc(Cl)c(-n3cc(C#N)c(=O)[nH]c3=O)cc2Cl)n[nH]c1=O [Compound 44] | > 50
24.1 | > 63 | CC(C)c1cc(Oc2cc(Cl)c(-n3cc(C#N)c(=O)[nH]c3=O)cc2Cl)n[nH]c1=O [Compound 40] | > 50
50.8 | 1.4 | COc1cc(-n2nc(C#N)c(=O)[nH]c2=O)ccc1Oc1n[nH]c(=O)c(C)c1C [Compound 46] | > 50
2.59 | 0.465 | CC(C)(C)c1cc(Oc2c(Cl)cc(-c3nn[nH]n3)cc2Cl)n[nH]c1=O [Compound 50] | > 50
> 60 | > 60 | CC(C)c1cc(=O)[nH]nc1Oc1cc(Cl)c(-n2nc(C#N)c(=O)[nH]c2=O)cc1Cl [Compound 35] | > 50

From patent publication US11964962B2, “Substituted pyridazinone compound and use thereof” (SHANDONG FIRST MEDICAL UNIVERSITY & SHANDONG ACADEMY OF …, priority 2020, dated 2024)
